The nature of data set [1]: Kinetic solubility assay in HBSS buffer. It is filed as physicochemical. The note with it: aqueous buffer, kinetic from dmso stock; Hanks-HEPES (HBSS buffer), pH 7.4; read-out: KS (kinetic solubility). As for the experimental part:
The kinetic solubility assay was performed to determine the solubility of the compounds in the in vitro assay conditions. The assay investigated the solubility based on the precipitation process in the HBSS buffer. For the preparation of the assay buffer, the following compounds were dissolved in 800 mL purified water: • − 130 mM sodium chloride, NaCl (7.600 g); • − 5.4 mM potassium chloride, KCl (0.403 g); • − 0.8 mM magnesium sulfate, MgSO4 × 7H2O (0.197 g); • − 0.9 mM sodium phosphate monobasic, NaH2PO4 × 2H2O (0.140 g); • − 25 mM D-glucose (4.500 g); • − 20 mM HEPES sodium salt (5.210 g).
The buffer was adjusted to pH 7.4, and the following compound was added to the mixture: • − 1.8 mM calcium chloride, CaCl2 × 2H2O (0.265 g).
The total volume was adjusted to 1000 mL.
The investigated compounds were diluted (in triplicate) with the HBSS buffer at pH 7.4 to a final concentration of 500 μM.
The mixture was shaken on a filter plate at 500 rpm for 1.5 h at RT. After incubation, the filter plate was placed inside a vacuum manifold and filtrated. Samples were collected and the concentration of the filtrate was determined spectrophotometrically by measuring the UV–VIS absorption spectrum. Concentrations were calculated based on equations resulting from the calibration curves (in duplicates, 8 calibration points, dilution Factor ×2, 500 µM → 3.91 µM, including blank sample).

Data set [2] is described as follows: Pharmacokinetics and brain uptake in mice after i.p. administration. It is filed as in vivo, mouse (Albino Swiss). The note with it: 10 mg/kg i.p.; for AUC(0-t) / Tmax / half-life / Cmax: ip. As for the experimental part:
Compounds were administered to mice at a dose of 10 mg/kg i.p. Plasma and tissue samples were collected at 0.25, 0.50, 1.0, 2.0, 4.0, 6.0, and 24 h. Plasma and tissue samples from all drug-treated animals were thawed at room temperature prior to use. The standard protocol for sample preparation was used: 200 μL of acetonitrile was added to the Eppendorf tubes with 50 μL of studied plasma samples or tissue homogenate. Samples were mixed for 5 min on a mixer at 25 °C and 1400 rpm. The tubes were then centrifuged at 2000× g for 15 min at 4 °C. A total of 180 μL of each supernatant was transferred to a plate well. Finally, each sample was injected into the LC–MS column. Calibration curve serial dilution method: Plasma was spiked with a standard at different concentrations. Acetonitrile was added. After mixing and centrifugation, the supernatant was collected.
Chromatographic conditions. Plasma and tissue samples from all drug-treated animals at selected time points were analyzed using a previously developed nonvalidated LC–MS/MS method. […] The LC–MS analysis was carried out on a Bruker amaZon SL mass spectrometer using the positive/negative ion ESI mode. Chromatographic separation was achieved on an Ascentis Express C18 column (5 cm × 2.1 mm, 2.7 μM, Supelco Technologies) at room temperature with a thermostatted column oven. A gradient elution of eluents A (acetonitrile (LiChrosolv, Reag. Ph Eur) + 0.1% formic acid (Sigma Aldrich, 98–100%)) and B (water + 0.1% formic acid) were used for separation. The flow rate was set at 1 mL/min. The injection volume was 20 μL, and the time of injection was 4 min.
Mass spectrometric conditions. An ion trap mass spectrometer (Bruker amaZon SL, Bruker, Bremen, Germany) was equipped with an electrospray source operating in the positive/negative ion mode. Data were collected and processed using Bruker Quant Analysis (Bruker, Bremen, Germany) software. A quantification of the analytes was performed in the SIM mode.

Data set [3] is described as follows: Metabolic stability in mouse microsomal fraction. Type of data set: in vitro ADME. Particulars: for MML (metabolic stability liver microsome mouse): 1 µM, mouse microsomes 0.3 mg/mL, NADPH-regenerating system; for microsomal CLint at 1 µM: pH 7.4, mouse liver microsomes. As for the experimental part: A metabolic stability assay was performed using a mouse microsomal fraction (phase I of metabolism) obtained from XenoTech (Kansas City, MO, USA). Compounds for metabolic stability testing were prepared as 10 mM stock solutions in DMSO. Compounds were incubated in triplicate at a 1 µM initial concentration with the microsomal fraction in the presence of NRS (NADPH-regenerating system, 1.3 mM). The final microsomal incubation (0.3 mg/mL) contained the components mentioned below in a pH 7.4 phosphate buffer. Control incubations were conducted without cofactors. The reference compound verapamil was used as a positive control. Incubations were carried out for 1 h on 96-well plates using a heated (+37 °C) orbital shaker (350 rpm). After incubation, the reaction was quenched through the addition of cold acetonitrile. The plate containing the samples was centrifuged at 2000 rpm for 15 min at 4 °C. The supernatants were analyzed using LC–MS.
The HPLC–MS consisted of a Dionex, Ultimate 3000 HPLC, and a Bruker Daltonics amaZon SL mass spectrometer (ESI-IT). The conditions were as follows: Column HPLC Ascentis Express C18 (5 cm × 2.1 mm, 2.7 µm) and an injection volume of 20 µL. An acetonitrile gradient was used with 0.1% formic acid in water at a constant flow rate of 1 mL/min. The programming was as follows: 0–0.5 min 5% ACN, 0.5–3.0 increase of 5–95%, 3.0–3.3 remaining at 95% ACN, 3.3–3.4 min decrease of 95–5% ACN, and 3.4–4.0 min 5% ACN. Samples were analyzed in a single-ion monitoring scan mode in positive mode. The conditions of the main parameters were as follows: a trap drive of 48.2, capillary exit voltage of 140.0 V, dry temperature (set) of 300 °C, nebulizer pressure (set) of 40.00 psi, dry gas flow (set) of 9.00 L/min HV capillary voltage of −4500 V, HV end-plate offset voltage of −500 V.
The percent loss of compounds was calculated through the normalization of the peak area against time 0, where the peak area at T0 was 100%. The elimination rate constant (h) was determined from the plot of ln (percent loss of compound) as a time function and equal to the minor value of the linear curve slope.

Data set [4] has as its target T1, CYP3A4 (Homo sapiens, UniProt P08684).
T1 construct: purchased BD Biosciences
The data set can be described thus: CYP inhibition assay, recombinant enzyme, fluorescence. Type of data set: in vitro ADME. Particulars: test concentrations 1.1, 3.3 and 10 μM; read-out: Cytochrome P450 3A4 IC50. As for the experimental part:
CYP inhibition was performed with the recombinant enzymes CYP1A2, CYP2B6, CYP2C9, CYP2C19, CYP2D6, and CYP3A4 obtained from BD Biosciences. Compounds for CYP inhibition testing were prepared as 10 mM stock solutions in DMSO. Isoform-specific substrates were incubated at 37 °C individually with P450 enzymes (Table 5) and a range of test compound concentrations (1.1, 3.3 and 10 μM) in duplicate. Each isoform was tested separately with one reference compound, a known positive control inhibitor. […] At the end of the incubation, product formation was monitored with fluorescence detection.

[5] abbreviates: mouse Albino Swiss, brain, read-out: AUC0-t, brain.
The mark [6] stands for this setting: mouse Albino Swiss, plasma, read-out: AUC0-t, plasma.
Where [7] appears, read: Albino Swiss, mouse, plasma and brain, mice, read-out: Tmax (plasma and brain) (converted).
Where [8] appears, read: mouse Albino Swiss, brain, read-out: T1/2, brain (converted).
[9] abbreviates: mouse Albino Swiss, brain, read-out: Tmax, brain.
Setting [10] is: mouse Albino Swiss, plasma, read-out: T1/2, plasma (converted).
The mark [11] stands for this setting: mouse Albino Swiss, plasma, read-out: Tmax, plasma.

In brackets after ≈: the same amount, converted by molar mass. Like-named read-outs stand apart in the source and are kept apart here.

As usually defined, the solubility (kinetic) is the concentration staying in solution when a stock, usually in DMSO, is diluted into the medium. As a reminder, the IC50 is the concentration that inhibits the measured activity by half. The term Tmax denotes the time at which the peak concentration occurs. For orientation: Cmax means the peak of the concentration-time curve. In general, microsomal CLint refers to the rate of metabolic loss divided by the concentration. A high value points to faster metabolism.

T1 sequence (P08684 whole entry): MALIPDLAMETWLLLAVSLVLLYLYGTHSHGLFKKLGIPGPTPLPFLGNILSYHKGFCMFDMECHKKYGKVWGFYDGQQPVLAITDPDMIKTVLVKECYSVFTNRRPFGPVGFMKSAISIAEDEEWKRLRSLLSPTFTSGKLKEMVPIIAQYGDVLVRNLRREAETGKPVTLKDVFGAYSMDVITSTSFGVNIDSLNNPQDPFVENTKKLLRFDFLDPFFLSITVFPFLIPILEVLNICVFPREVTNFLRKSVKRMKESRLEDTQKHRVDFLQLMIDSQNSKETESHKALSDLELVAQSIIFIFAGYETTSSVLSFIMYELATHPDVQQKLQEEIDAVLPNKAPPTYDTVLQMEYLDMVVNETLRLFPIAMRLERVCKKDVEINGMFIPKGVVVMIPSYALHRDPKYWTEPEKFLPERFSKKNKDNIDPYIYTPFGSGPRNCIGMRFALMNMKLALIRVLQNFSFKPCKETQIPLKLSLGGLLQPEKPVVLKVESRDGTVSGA

Take `CCc1nc2c(o1)CC(c1ccc(C)cc1C)CC2=O` (stereo not shown) [ADX71743, reference compound]: the solubility (kinetic) at 1.5 h in data set [1] amounted to 510 µM (≈ 137 µg/mL). The results for the AUC(0-t) in data set [2] (setting [5]) and in data set [2] (setting [6]) were 2.27 µM·h and 1.9 µM·h, respectively. Also, the “Cmax, brain” value in data set [2] (mouse Albino Swiss, brain) was 3.38 µM/L. The “MML (metabolic stability liver microsome mouse)” value (shortened to “MML”) in data set [3] came to 0.01 % remaining after 60 min.
For the molecule `Cn1c(-c2ccccc2Cl)nc2ccc(-c3ccccc3)cc2c1=O` [ALX-065, 2-(2-chlorophenyl)-3-methyl-6-phenylquinazolin-4(3H)-one], the solubility (kinetic) at 1.5 h in data set [1] came out at 6.88 µM (≈ 2.39 µg/mL). Moreover, the IC50 in data set [4] was over 10 µM. In addition, the Tmax in data set [2] (setting [7]), in data set [2] (setting [9]) and in data set [2] (setting [11]) was 15 min in each case. Further, the AUC(0-t) in data set [2] (setting [5]) came to 1.32 µM·h; in data set [2] (setting [6]), 1.99 µM·h. Besides, the half-life was 29.4 min in data set [2] (setting [8]) and 78.6 min in data set [2] (setting [10]). The Cmax in data set [2] (mouse Albino Swiss, plasma) turned out to be 2.28 µM. Besides, the “Cmax, brain” value in data set [2] (mouse Albino Swiss, brain) is reported as 1.81 µM/L. Further, the “MML” value in data set [3] turned out to be 0.81 % remaining after 60 min. This molecule also showed a microsomal CLint at 1 µM in data set [3] of 268 µL/min/mg.
As to `COc1cccc(-c2ccc3nc(-c4ccccc4Cl)n(C)c(=O)c3c2)c1OC` [ALX-171, 2-(2-chlorophenyl)-6-(2,3-dimethoxyphenyl)-3-methylquinazolin-4(3H)-one], in data set [1], the kinetic solubility at 1.5 h was 15.2 µM (≈ 6.2 µg/mL). Besides, in data set [4], the half-maximal inhibitory concentration (IC50) lay within 3.3 to 10 µM. The Tmax in data set [2] (setting [7]) is 15 min; in data set [2] (setting [9]) it was 15 min; in data set [2] (setting [11]), 30 min. Besides, the AUC(0-t) in data set [2] (setting [5]) was 13.8 µM·h; in data set [2] (setting [6]), 13.4 µM·h. Also, the half-life was 334 min in data set [2] (setting [8]) and 312 min in data set [2] (setting [10]). Further, the Cmax in data set [2] (mouse Albino Swiss, plasma) worked out at 4.46 µM. Besides, the “Cmax, brain” value in data set [2] (mouse Albino Swiss, brain) was determined as 2.52 µM/L. Moreover, in data set [3], the “MML” value amounted to 54.01 % remaining after 60 min. For the same molecule, the microsomal CLint at 1 µM in data set [3] was 34.2 µL/min/mg.

(Values after publication PMC9916658, “Design and Synthesis of New Quinazolin-4-one Derivatives with Negative mGlu7 Receptor Modulation Activity and Antipsychotic-Like Properties” (International Journal of Molecular Sciences, 2023).)
